Patent publication US9474790B2, “Stable, protracted GLP-1/glucagon receptor co-agonists for medical use” (Novo Nordisk A/S, priority 2013, dated 2016)
pEC50, pIC50: −log10 of the molar value. Numbered stars: 1 amine (or outer) side, 2 acyl side, 3 side chain; on linkers, the order of the positions; unused ones are H or OH. Square brackets hold non-standard residues; d marks the D form. Side chains are listed from the residue outwards. Peptide text beside a SMILES is read from it. * marks the point of attachment. C18 diacid = O=C(O)CCCCCCCCCCCCCCCCC(=O)*; γGlu = O=C(O)[C@H](CCC(=O)[*:2])N[*:1]; AEEA = NCCOCCOCC(=O)O; Aib = CC(C)(N)C(=O)O

Experiments:
[1] = biological target: T1, human GLP-1 receptor (Homo sapiens, UniProt P43220); assay: GLP-1 receptor potency, CRE luciferase reporter gene assay in BHK cells; assay type: cell-based; conditions: BHK cells expressing human GLP-1 receptor, read-out: EC50 GLP-1R
T1 construct: expressed in transfected cells; host or cells: BHK cells (parent BHKTS13), clone FCW467-12A/KZ10-1, with CRE luciferase
T1 sequence (P43220 24-463): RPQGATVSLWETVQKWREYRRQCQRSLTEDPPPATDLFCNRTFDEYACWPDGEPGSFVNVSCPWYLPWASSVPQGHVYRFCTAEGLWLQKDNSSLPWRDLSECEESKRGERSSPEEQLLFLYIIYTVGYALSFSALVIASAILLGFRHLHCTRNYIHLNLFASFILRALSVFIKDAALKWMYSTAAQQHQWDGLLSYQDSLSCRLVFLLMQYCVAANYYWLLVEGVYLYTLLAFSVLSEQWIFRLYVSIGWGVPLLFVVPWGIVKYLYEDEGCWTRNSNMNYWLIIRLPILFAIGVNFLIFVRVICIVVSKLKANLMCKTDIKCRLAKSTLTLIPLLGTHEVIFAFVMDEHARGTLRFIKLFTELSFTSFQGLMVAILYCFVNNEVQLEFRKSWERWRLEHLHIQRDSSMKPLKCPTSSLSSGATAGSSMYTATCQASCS
Method in brief: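 BHK cells stably expressing human GLP-1 receptor with CRE-luciferase reporter, 5×10EE3 cells/well in phenol red-free DMEM with 10 mM Hepes, 2% ovalbumin, 0.2% Pluronic F-68. Compounds at final 1×10EE-6 to 1×10EE-13 M, 3 h at 37° C; steadylite luminescence; EC50 by four-parameter fit, in pM.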

[2] = biological target: T2, human glucagon receptor (Homo sapiens, UniProt P47871); assay: Glucagon receptor potency, CRE luciferase reporter gene assay in BHK cells; assay type: cell-based; conditions: BHK cells expressing human glucagon receptor, read-out: EC50 GlucR
T2 construct: expressed in transfected cells; host or cells: BHK cells (parent BHK570, CRE luciferase clone BHK/KZ10-20-48), clone pLJ6'-4-25
T2 sequence (P47871 26-477): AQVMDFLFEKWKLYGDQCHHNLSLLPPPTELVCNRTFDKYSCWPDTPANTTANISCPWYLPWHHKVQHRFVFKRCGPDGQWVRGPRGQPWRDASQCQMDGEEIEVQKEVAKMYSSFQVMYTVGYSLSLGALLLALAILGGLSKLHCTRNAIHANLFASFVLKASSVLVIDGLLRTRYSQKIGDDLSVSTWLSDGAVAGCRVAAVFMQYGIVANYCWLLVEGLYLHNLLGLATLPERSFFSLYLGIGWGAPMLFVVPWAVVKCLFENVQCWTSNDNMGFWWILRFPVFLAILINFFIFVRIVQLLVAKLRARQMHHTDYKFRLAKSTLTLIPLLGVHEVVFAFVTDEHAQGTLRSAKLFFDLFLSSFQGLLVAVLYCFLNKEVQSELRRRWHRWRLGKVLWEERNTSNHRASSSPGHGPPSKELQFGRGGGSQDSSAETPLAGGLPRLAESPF
Procedure: The purpose of this example was to test the potency, of the glucagon derivatives of the invention, in vitro. The in vitro potency is the measure of human GLP-1 receptor or glucagon receptor activation, respectively, in a whole cell assay.
In vitro potency was determined by measuring the response of human GLP-1 or glucagon receptor, respectively, in a reporter gene assay. The assay was performed in a stably transfected BHK cell line that expresses either the human GLP-1 receptor or the human glucagon receptor and contains the DNA for the cAMP response element (CRE) coupled to a promoter and the gene for firefly luciferase (CRE luciferase). […] When assay incubation was completed, the luciferase substrate (luciferin) was added and the enzyme converted luciferin to oxyluciferin and produces bioluminescence. The luminescence was measured as the readout for the assay.
The cells used in this assay (clone pLJ6′-4-25) were BHK cells with BHK570 as a parent cell line expressing the CRE luciferase gene (clone BHK/KZ10-20-48) and were established by further transfection with the human glucagon receptor (clone pLJ6′ in pHZ-1 vector).
The cells were cultured at 5% CO2 in DMEM medium with 10% FBS, 1×GlutaMAX, 1 mg/ml G418, 240 nM MTX (methotrexate) and 1% pen/strep (penicillin/streptomycin). They were aliquoted and stored in liquid nitrogen. Before each assay, an aliquot was taken up and washed three times in PBS before being suspended at the desired concentration in assay medium. For 96-well plates the suspension was made to give a final concentration of 5×10EE3 cells/well.
The following chemicals were used in the assay: Pluronic F-68 (10%) (Gibco 2404), ovalbumin (Sigma A5503), DMEM w/o phenol red (Gibco 11880-028), 1 M Hepes (Gibco 15630), Glutamax 100× (Gibco 35050) and steadylite plus (PerkinElmer 6016757).
Assay Medium consisted of DMEM w/o phenol red, 10 mM Hepes, 1× GlutaMAX, 2% Ovalbumin and 0.2% Pluronic F-68.
Cell stocks were thawed in a 37° C. water bath. Cells were washed three times in PBS. The cells were counted and adjusted to 5×10EE3 cells/50 μl (1×10EE5 cells/ml) in Assay Medium. A 50 μl aliquot of cells was transferred to each well in the assay plate.
Stocks of the test compounds and reference compounds were diluted to a concentration of […] in Assay Medium. Compounds were diluted 10-fold to give the following concentrations: 2×10EE-6 M, 2×10EE-7 M, 2×10EE-8 M; 2×10EE-9 M, 2×10EE-10 M, 2×10EE-11 M, 2×10EE-12 M and 2×10EE-13 M. For each compound a blank assay medium control was also included.
A 50 μl aliquot of compound or blank was transferred from the dilution plate to the assay plate. Compounds were tested at the following final concentrations: 1×10EE-6 M, 1×10EE-7 M, 1×10EE-8 M; 1×10EE-9 M, 1×10EE-10 M, 1×10EE-11 M and 1×10EE-12 M and 1×10EE-13 M.
The assay plate was incubated for 3 h in a 5% CO2 incubator at 37° C. The assay plate was removed from the incubator and allowed to stand at room temperature for 15 min. A 100 μl aliquot of steadylite plus reagent was added to each well of the assay plate (reagent is light sensitive). Each assay plate was covered with aluminum foil to protect it from light and shaken for 30 min at room temperature. Each assay plate was read in a Perkin Elmer TopCount NXT instrument.
The data from the TopCount instrument was transferred to GraphPad Prism software. The software performed a non-linear regression (log(agonist) vs response-Variable slope (four parameter)). EC50 values were calculated by the software and reported in pM.

[3] = biological target: T1, human GLP-1 receptor; assay: GLP-1 receptor binding, 125I-GLP-1 displacement SPA on isolated membranes; conditions: displacement of 125I-GLP-1 from membranes; read-out: IC50 GLP-1R
Method in brief: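 SPA displacement of 125I-GLP-1(7-36)NH2 from membranes of BHK cells expressing human GLP-1 receptor, with WGA beads, in 50 mM HEPES, 5 mM EGTA, 5 mM MgCl2, 0.005% Tween 20, pH 7.4. Incubated 2 h at 30°C; IC50 by non-linear regression, run at ≤0.001% or 2.0% final serum albumin.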

Row | Compound | pEC50 [1] | pEC50 [2] | pIC50 [3]
1 | CC(C)C[C@H](NC(=O)[C@H](Cc1ccc(O)cc1)NC(=O)[C@H](CCCCN)NC(=O)[C@H](CO)NC(=O)[C@H](CC(C)C)NC(=O)[C@H](CC(=O)O)NC(=O)[C@H](CO)NC(=O)[C@@H](NC(=O)[C@H](Cc1ccccc1)NC(=O)[C@@H](NC(=O)CNC(=O)[C@H](CCC(N)=O)NC(=O)C(C)(C)NC(=O)[C@@H](N)Cc1c[nH]cn1)[C@@H](C)O)[C@@H](C)O)C(=O)N[C@@H](CC(=O)O)C(=O)N[C@@H](CCCCNC(=O)CC[C@H](NC(=O)CC[C@H](NC(=O)COCCOCCNC(=O)COCCOCCNC(=O)CC[C@H](NC(=O)CCCCCCCCCCCCCCCCC(=O)O)C(=O)O)C(=O)O)C(=O)O)C(=O)N[C@@H](CCCNC(=N)N)C(=O)N[C@@H](CCCNC(=N)N)C(=O)N[C@@H](C)C(=O)N[C@@H](CCCNC(=N)N)C(=O)N[C@@H](CC(=O)O)C(=O)N[C@@H](Cc1ccccc1)C(=O)N[C@H](C(=O)N[C@@H](CCC(N)=O)C(=O)N[C@@H](Cc1c[nH]c2ccccc12)C(=O)N[C@@H](CC(C)C)C(=O)N[C@@H](CC(C)C)C(=O)N[C@@H](CO)C(=O)N[C@H](C(N)=O)[C@@H](C)O)C(C)C [Example 1, N^ε16-[(4S)-4-carboxy-4-[[(4S)-4-carboxy-4-[[2-[2-[2-[[2-[2-[2-[[(4S)-4-carboxy-4-(17-carboxyheptadecanoylamino)butanoyl]amino]ethoxy]ethoxy]acetyl]amino]ethoxy]ethoxy]acetyl]amino]butanoyl]amino]butanoyl]-[Aib2,Leu10,Lys16,Arg20,Leu27,Ser28]-Glucagon amide] (H-H[Aib]QGTFTSDLSKYLDK([γGlu-γGlu-AEEA-AEEA-γGlu-C18 diacid])RRARDFVQWLLST-NH2; N-terminus assumed) | 11.10 | 10.27 | 
2 | CC(C)C[C@H](NC(=O)[C@H](Cc1ccc(O)cc1)NC(=O)[C@H](CCCCN)NC(=O)[C@H](CO)NC(=O)[C@H](CC(C)C)NC(=O)[C@H](CC(=O)O)NC(=O)[C@H](CO)NC(=O)[C@@H](NC(=O)[C@H](Cc1ccccc1)NC(=O)[C@@H](NC(=O)CNC(=O)[C@H](CCC(N)=O)NC(=O)C(C)(C)NC(=O)[C@@H](N)Cc1c[nH]cn1)[C@@H](C)O)[C@@H](C)O)C(=O)N[C@@H](CC(=O)O)C(=O)N[C@@H](CO)C(=O)N[C@@H](CCCNC(=N)N)C(=O)N[C@@H](CCCNC(=N)N)C(=O)N[C@@H](C)C(=O)N[C@@H](CCCNC(=N)N)C(=O)N[C@@H](CC(=O)O)C(=O)N[C@@H](Cc1ccccc1)C(=O)N[C@H](C(=O)N[C@@H](CCC(N)=O)C(=O)N[C@@H](Cc1c[nH]c2ccccc12)C(=O)N[C@@H](CC(C)C)C(=O)N[C@@H](CC(C)C)C(=O)N[C@@H](CCCCNC(=O)CC[C@H](NC(=O)CC[C@H](NC(=O)COCCOCCNC(=O)COCCOCCNC(=O)CC[C@H](NC(=O)CCCCCCCCCCCCCCCCC(=O)O)C(=O)O)C(=O)O)C(=O)O)C(=O)N[C@H](C(N)=O)[C@@H](C)O)C(C)C [Example 4, N^ε28-[(4S)-4-carboxy-4-[[(4S)-4-carboxy-4-[[2-[2-[2-[[2-[2-[2-[[(4S)-4-carboxy-4-(17-carboxyheptadecanoylamino)butanoyl]amino]ethoxy]ethoxy]acetyl]amino]ethoxy]ethoxy]acetyl]amino]butanoyl]amino]butanoyl]-[Aib2,Leu10,Arg20,Leu27,Lys28]-Glucagon amide] (H-H[Aib]QGTFTSDLSKYLDSRRARDFVQWLLK([γGlu-γGlu-AEEA-AEEA-γGlu-C18 diacid])T-NH2; N-terminus assumed) | 11.40 | 10.80 | 
3 | CC(C)C[C@H](NC(=O)[C@H](CC(=O)O)NC(=O)[C@H](CC(C)C)NC(=O)[C@H](Cc1ccc(O)cc1)NC(=O)[C@H](CCCCN)NC(=O)[C@H](CO)NC(=O)[C@@H](NC(=O)[C@H](CC(=O)O)NC(=O)[C@H](CO)NC(=O)[C@@H](NC(=O)[C@H](Cc1ccccc1)NC(=O)[C@@H](NC(=O)CNC(=O)[C@H](CCC(N)=O)NC(=O)C(C)(C)NC(=O)[C@@H](N)Cc1c[nH]cn1)[C@@H](C)O)[C@@H](C)O)C(C)C)C(=O)N[C@@H](CCCNC(=N)N)C(=O)N[C@@H](CCCNC(=N)N)C(=O)N[C@@H](C)C(=O)N[C@@H](CCC(N)=O)C(=O)N[C@@H](CC(=O)O)C(=O)N[C@@H](Cc1ccccc1)C(=O)N[C@H](C(=O)N[C@@H](CCC(N)=O)C(=O)N[C@@H](Cc1c[nH]c2ccccc12)C(=O)N[C@@H](CC(C)C)C(=O)N[C@@H](CC(C)C)C(=O)N[C@@H](CCCCNC(=O)COCCOCCNC(=O)COCCOCCNC(=O)CC[C@H](NC(=O)CC[C@H](NC(=O)CC[C@H](NC(=O)CCCCCCCCCCCCCCCCC(=O)O)C(=O)O)C(=O)O)C(=O)O)C(=O)N[C@H](C(N)=O)[C@@H](C)O)C(C)C [Example 71, N^ε28-[2-[2-[2-[[2-[2-[2-[[(4S)-4-carboxy-4-[[(4S)-4-carboxy-4-[[(4S)-4-carboxy-4-(17-carboxyheptadecanoylamino)butanoyl]amino]butanoyl]amino]butanoyl]amino]ethoxy]ethoxy]acetyl]amino]ethoxy]ethoxy]acetyl]-[Aib2,Val10,Leu16,Leu27,Lys28]-Glucagon amide] (H-H[Aib]QGTFTSDVSKYLDLRRAQDFVQWLLK([AEEA-AEEA-γGlu-γGlu-γGlu-C18 diacid])T-NH2) | 11.40 | 10.77 | 9.15
